In patent US20240262842A1, “SMALL MOLECULE INHIBITORS OF KRAS G12C MUTANT” (Merck Sharp & Dohme LLC, priority 2021, published 2024) one finds IC50 data, which are given here for three compounds.

The target of the assay is biotinylated KRAS G12C protein (GMP-PNP loaded) and GST-tagged Ras binding domain of c-RAF (Homo sapiens, UniProt P01116, C118S/C51S/C80L/G12C). The assay can be described thus: RAS:RAF-RBD binding assay (TR-FRET). The conditions noted are these: 30-minute incubation of compound with KRAS G12C before RAF-RBD; Table 4; read-out: IC50. For orientation: TR-FRET usually uses a lanthanide donor and a delayed reading to cut background.
With `Cc1nc2c3c(c(OC(F)F)cc2n1C)-c1cccn2c(C(=O)c4cc(F)c(NC(=O)/C=C/CNC5(C)CC5)c(F)c4)cc(c12)CCN3C` [Example 300, (E)-N-(4-(7-(difluoromethoxy)-9,10,12-trimethyl-9,12,13,14-tetrahydroimidazo[4″,5″:5′,6′]benzo[1′,2′:2,3]azocino[4,5,6-hi]indolizine-2-carbonyl)-2,6-difluorophenyl)-4-((1-methylcyclopropyl)amino)but-2-enamide], the IC50 – broadly, the midpoint of a concentration-inhibition curve – turned out to be 1.22 nM. On to “(2S)-1-((Z)-4-((4-(9,10- dimethyl-7-(trifluorometh- yl)-13,14-dihydro-9H- imidazo[4″,5″:5′,6′]benzo- [1′,2′:2,3loxocino[4,5,6- hi]indolizine-2-carbonyl)- 2,6-difluorophenyl)amino)- 3-fluoro-4-oxobut-2-en-1- yl)-2-(hydroxymethyl)- azetidin-1-ium2,2,2- trifluoroacetate [Example 262]”, for which the IC50 was found to be 15.1 nM. Next, “(Z)-N-(4-((4-(9,10-dimeth- yl-7-(trifluoromethyl)- 13,14-dihydro-9H-imid- azo[4″,5″:5′6′]benzo- [1′,2′:2,3]oxocino[4,5,6- hi]indolizine-2-carbonyl)- 2,6-difluorophenyl)amino)- 3-fluoro-4-oxobut-2-en-1- yl)-1-methylcyclopropan- 1-aminium2,2,2-trifluoro- acetate [Example 261]”: 22.2 nM.
